d = 2'-deoxy (DNA); r = 2'-OH (RNA)
What was measured:
[1] = test system: LNCaP cells; assay: methylene blue (MB) cell viability assay after siRNA transfection; assay type: cell-based; settings: Lipofectamine 2000 transfection, 72 hours incubation, FIG. 1
Protocol: Prostate cancer cell line LNCaP (ATCC # CRL-1740) was grown in Roswell Park Memorial Institute medium (RPMI) supplemented with 10% fetal bovine serum (FBS) and 100 units/ml penicillin/streptomycin, according to the ATCC protocol. Cells were seeded into 96-well culture plates and incubated overnight before transfection with siRNAs targeting HSP90 sequences.
Cells were transfected using Lipofectamine® 2000 transfection reagent (Life Technologies) based on manufacturer's protocol, with siRNA targeting HSP90: HSP1-1 (sense strand SEQ ID NO: 4, anti-sense strand SEQ ID NO: 8), HSP1-2 (sense strand SEQ ID NO: 5, anti-sense strand SEQ ID NO: 9), and HSP1-3 (sense strand SEQ ID NO: 6, anti-sense strand SEQ ID NO: 10). Cells were also treated with HSP90 inhibitor NVP-AUY922 (or AUY922), a resorcinylicisoxazole amide was used at 5 nM and 10 nM (with similar effect), or left untreated. After 72 hours incubation, cellular viability was determined by standard methylene blue (MB) assay, and quantitated as percentage of viable cells in relation to the untreated sample (FIG. 1).

[2] = test system: Androgen receptor; assay: AR-dependent luciferase reporter assay in transfected LNCaP cells; assay type: cell-based; settings: co-transfection, 24 hours post-transfection, vs mock, p<0.05, FIG. 2
Protocol: HPS90 is known to be a chaperone of AR (androgen receptor), and is necessary for correct AR post-translational processing. To further test RNAi targeting of HSP90, an AR-dependent luciferase reporter construct was used (FIG. 2). LNCaP cells were cultured as above, and were seeded onto a 48-well culture plate. After an overnight incubation, plated cells were co-transfected using Lipofectamine® 2000 transfection reagent (Life Technologies) based on manufacturer's protocol for DNA-RNA transfections with an AR-luciferase reporter plasmid (Qiagen, CCS-1019L), and siRNA targeting HSP90 (HSP1-1 (sense strand SEQ ID NO: 4, anti-sense strand SEQ ID NO: 8); AR (siAR-1), or a non-target scrambled siRNA (si-scr). Cells transfected only with the AR-luciferase reported plasmid served as the negative control (mock). 24 hours post-transfection, cells were lysed and luciferase activity determined with the Promega luciferase detection kit.

Row | Substance | cellular viability (percentage of viable cells in relation to the untreated sample) [1] | luciferase activity of AR-luciferase reporter plasmid [2]
1 | HSP1-2: siRNA targeting HSP90, sense strand SEQ ID NO: 5, anti-sense strand SEQ ID NO: 9 (sense AAGAGCUGCAUAUUAACCUTT; antisense AGGUUAAUAUGCAGCUCUUTT; sugars from the 5' end r19 d2, backbone not given here) | statistically significant decrease | 
2 | HSP1-3: siRNA targeting HSP90, sense strand SEQ ID NO: 6, anti-sense strand SEQ ID NO: 10 (sense AAGUCUGGGACCAAAGCGUTT; antisense ACGCUUUGGUCCCAGACUUTT; sugars from the 5' end r19 d2, backbone not given here) | statistically significant decrease | 
3 | HSP1-1: siRNA targeting HSP90, sense strand SEQ ID NO: 4, anti-sense strand SEQ ID NO: 8 (sense 5'-AAG ACC AAC CGA UGG AGGAdTdT-3'; antisense 5'-UCC UCC AUC GGU UGG UCUUdTdT-3; as printed in the source, key not given here) | statistically significant decrease | significantly decreased

From US10006030B2, “RNA interference compositions targeting heat shock protein 90 and methods of use thereof” (SILENSEED LTD., priority 2014, dated 2018)
